Where two headings read alike, the source gives them in different places.
Key:
[1] = molecular target: T1, 5-lipoxygenase (Rattus norvegicus, UniProt P12527); experiment: ARBL whole cell 5-lipoxygenase assay (RBL-1 cells, inhibition of LTB4 formation); type: cell-based; details: calcium ionophore A23187 (5 μM)
T1 construct: host or cells: RBL-1 (rat basophilic leukemia)
T1 sequence (P12527 1-673): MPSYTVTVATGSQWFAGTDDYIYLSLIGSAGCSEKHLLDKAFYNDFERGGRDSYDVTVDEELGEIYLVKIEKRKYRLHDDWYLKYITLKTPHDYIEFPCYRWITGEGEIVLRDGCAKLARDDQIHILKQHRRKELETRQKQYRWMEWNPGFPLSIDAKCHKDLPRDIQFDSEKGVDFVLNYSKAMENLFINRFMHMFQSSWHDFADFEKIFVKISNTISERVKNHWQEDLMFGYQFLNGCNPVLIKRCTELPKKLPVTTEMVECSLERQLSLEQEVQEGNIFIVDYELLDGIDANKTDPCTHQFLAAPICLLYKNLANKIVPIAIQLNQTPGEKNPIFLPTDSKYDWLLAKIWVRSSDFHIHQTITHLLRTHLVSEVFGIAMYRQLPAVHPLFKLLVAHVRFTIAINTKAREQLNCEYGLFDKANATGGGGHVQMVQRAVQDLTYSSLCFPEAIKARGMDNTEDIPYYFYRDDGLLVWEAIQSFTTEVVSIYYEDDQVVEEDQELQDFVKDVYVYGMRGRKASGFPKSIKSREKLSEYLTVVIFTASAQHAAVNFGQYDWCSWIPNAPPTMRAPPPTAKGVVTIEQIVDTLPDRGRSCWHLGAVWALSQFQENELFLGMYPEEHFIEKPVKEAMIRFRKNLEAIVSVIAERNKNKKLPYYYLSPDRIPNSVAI
Method: (§1) ARBL/ARBC WHOLE CELL 5-LIPOXYGENASE AND CYCLOOXYGENASE ASSAYS
(§2) The rat basophilic leukemia cell line (RBL-1) was obtained from the American Type Culture Collection (Rockville, Md.).
(§3) Radioimmunoassay (RIA) kits of LTB4 and PGF2α were obtained from Amersham (Arlington Heights, Ill.) and Seragen (Boston, Mass.), respectively.
(§4) All tissue culture media were obtinaed from GIBCO (Grand Island, N.Y.).
(§5) RBL-1 cells are grown in suspension culture in Eagle's minimum essential medium supplemented with 12% fetal bovine serum at 37° C. in an incubator supplied with air-5% carbon dioxide. Cells are harvested by centrifugation. They are washed with cold phosphate-buffered saline, pH 7.4 (PBS; NaCl, 7.1 g; Na2 HPO4, 1.15 g; KH2 PO4, 0.2 g; and KCl, 0.2 g/L). Cells are finally suspended in PBS containing 1.0 mM calcium at a density of 2×10^6 cells/mL. Cells are incubated […] test agent (in DMSO) (1% DMSO is without effect on arachidonic acid metabolism) for 10 minutes at room temperature. Calcium ionophore A23187 (5 μM) is added and cells are incubated for 7 minutes at 37° C. The reaction is stopped by chilling the tubes on ice for 10 minutes. Cells are separated by centrifugation and the supernatant is stored at -20° C. Aliquots (100 μL) are anlyzed for LTB4 and PGF2α using radioimmunoassay kits as provided by the supplier.
(§6) Table 1 contains biochemical data for compounds of formula I obtained from this whole cell assay as amount of inhibition at 10 μM or IC50 s which are calculated as the concentration of a test compound in micromoles (μM) causing 50% inhibition of LTB4 or PGF2α formation.

[2] = molecular target: T2, cyclooxygenase (Rattus norvegicus, UniProt Q63921); experiment: ARBC whole cell cyclooxygenase assay (RBL-1 cells, inhibition of PGF2α formation); type: cell-based; details: calcium ionophore A23187 (5 μM)
T2 construct: host or cells: RBL-1 (rat basophilic leukemia)
T2 sequence (Q63921 27-602): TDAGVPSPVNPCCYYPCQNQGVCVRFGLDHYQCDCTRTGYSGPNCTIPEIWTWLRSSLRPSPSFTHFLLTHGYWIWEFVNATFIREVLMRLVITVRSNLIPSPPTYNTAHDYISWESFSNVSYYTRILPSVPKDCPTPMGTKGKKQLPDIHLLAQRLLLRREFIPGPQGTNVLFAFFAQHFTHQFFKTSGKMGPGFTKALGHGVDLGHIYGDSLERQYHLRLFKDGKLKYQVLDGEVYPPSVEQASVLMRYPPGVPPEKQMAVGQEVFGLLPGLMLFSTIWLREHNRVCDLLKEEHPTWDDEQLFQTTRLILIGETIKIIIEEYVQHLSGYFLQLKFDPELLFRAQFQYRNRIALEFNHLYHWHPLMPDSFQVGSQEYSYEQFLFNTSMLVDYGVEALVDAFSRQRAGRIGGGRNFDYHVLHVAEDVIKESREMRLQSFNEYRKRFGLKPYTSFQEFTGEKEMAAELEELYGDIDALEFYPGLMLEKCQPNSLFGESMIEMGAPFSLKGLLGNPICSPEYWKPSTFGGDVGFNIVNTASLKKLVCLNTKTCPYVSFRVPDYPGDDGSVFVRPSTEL
Method: as §1, §2, §3, §4, §5, §6

[3] = system: Mycobacterium-Induced Rat Footpad Edema; experiment: Mycobacterium-Induced Rat Footpad Edema Assay (MFE); type: in vivo; details: at 10 m/k, dosed one hour before Mycobacterium and Days 1 and 2, 72 hours
Method: Mycobacterium - Induced Rat Footpad Edema Assay (MFE): Protocol Mycobacterium butyricum (5 mg/ml) is suspended in paraffin oil by sonication for ten minutes in an ice bath. Footpad edema is induced on Day 0 by injecting 0.1 ml of the Mycobacterium mixture into the left hindpaw of lightly anesthetized rats. Swelling in the injected hindpaw is determined by mercury plethysmography 72 hours after injection. Groups of rats are treated with test compounds (suspended in 0.5% hydroxypropyl methylcellulose with 0.2% Tween-80) or vehicle one hour before Mycobacterium injection and on Days 1 and 2. Inhibition of swelling is determined by comparing the change in hindpaw volume in compound- and vehicle-treated rats. An ID40 (the dose at which swelling is inhibited by 40%) is calculated by probit analysis. Table 1 also contains biochemical data for compounds of formula I obtained from the CFE and MFE assays.

[4] = system: Carrageenan-Induced Rat Foot Paw Edema; experiment: Carrageenan-Induced Rat Foot Paw Edema-2 (CFE-2) Assay; type: in vivo; details: at 10 m/k, dosed one hour before carrageenan, edema at five hours
Method: Carrageenan-Induced Rat Foot Paw Edema-2 (CFE-2) Assay: Protocol
Carrageenan solution (1% w/v) is prepared by dissolving 100 mg carrageenan (Marine Colloidal Div., Springfield N.J.) in 10 ml of sterile saline (0.9%) solution (travenol). The solution is vortexed for 30 to 45 minutes. Animals are dosed with compound one hour before carrageenan challenge. Foot paw edema is induced by injecting 0.10 ml of the 1% carrageenan subcutaneously into the plantar portion of the right hind paw of each rat under light anesthesia. Initial foot paw volume is measured immediately following carrageenan challenge using mercury plethysmography (Buxco Electronics). Edema is measured five hours after carrageenan. The difference between the five-hour and the initial paw volume is expressed as delta edema. The delta edema for each test group of animals is used to calculate the percent inhibition of edema achieved by the compound at the test dose compared with the vehicle control group. The ID40 (the dose at which swelling is inhibited by 40%) is calculated by probit analysis for the dose at which 40 percent inhibition occurs.
Table 1 also contains biochemical data for compounds of formula I obtained from the CFE and MFE assays.

[5] = read-out: ARBC, inhibition of PGF2α (class symbol N)
[6] = read-out: ARBC, inhibition of PGF2α

Compound	inhibition at 10 µM [1]	inhibition at 10 µM [2, 5]	other results
CC(C)(C)c1cc(/C=C2\C(=O)Nc3ccccc32)cc(C(C)(C)C)c1O [Example 1, 3-[[3,5-bis(1,1-dimethylethyl)-4-hydroxyphenyl]methylene]1,3,-dihydro-2H-indole-2-one, (Z)-]	–	–	IC50 [1]: 0.93 µM; IC50 [2]: 1.5 µM; MFE, inhibition of swelling [3]: 42%
CC(C)(C)c1cc(/C=C2\C(=O)N(C(N)=O)c3ccccc32)cc(C(C)(C)C)c1O [Example 3]	100%	–	inhibition at 10 µM [2, 6]: 32%
CN1C(=O)/C(=C\c2cc(C(C)(C)C)c(O)c(C(C)(C)C)c2)c2ccccc21 [Example 4]	100%	–	inhibition at 10 µM [2, 6]: 30%
COc1cccc2c1NC(=O)/C2=C\c1cc(C(C)(C)C)c(O)c(C(C)(C)C)c1 [Example 5, 3-[[3,5-bis(1,1-dimethylethyl)-4-hydroxyphenyl]-methylene]-1,3-dihydro-7-methoxy-2H-indol-2-one, (Z)-]	–	–	IC50 [1]: 0.43 µM; CFE, inhibition of edema [4]: 43%; IC50 [2]: 6.07 µM; MFE, inhibition of swelling [3]: 33%
Cc1cccc2c1NC(=O)/C2=C\c1cc(C(C)(C)C)c(O)c(C(C)(C)C)c1 [Example 7]	100%	< 40%	–
COc1ccc2c(c1)/C(=C/c1cc(C(C)(C)C)c(O)c(C(C)(C)C)c1)C(=O)N2C [Example 8, 3-[[3,5-bis(1,1-dimethylethyl)-4-hydroxyphenyl]methylene]-1,3-dihydro-5-methoxy-1-methyl-2H-indole-2-one, (Z)-]	100%	< 40%	–
CC(C)(C)c1cc(/C=C2\C(=O)Nc3cccc(Cl)c32)cc(C(C)(C)C)c1O [Example 9, 3-[[3,5-bis(1,1-dimethylethyl)-4-hydroxyphenyl]methylene]-4-chloro-1,3-dihydro-2H-indole-2-one, (Z)-]	48%	< 40%	–
Cc1cccc2c1/C(=C/c1cc(C(C)(C)C)c(O)c(C(C)(C)C)c1)C(=O)N2 [Example 10, 3-[[3,5-bis(1,1-dimethylethyl)-4-hydroxyphenyl]methylene]-1,3-dihydro-4-methyl-2H-indole-2-one, (Z)-]	100%	< 40%	–

Continued, in another order:

inhibition at 10 µM [1]	inhibition at 10 µM [2, 5]	Compound	other results
100%	< 40%	Cc1ccc2c(c1)/C(=C/c1cc(C(C)(C)C)c(O)c(C(C)(C)C)c1)C(=O)N2 [Example 2, 3-[[3,5-Bis(1,1-dimethylethyl)-4-hydroxyphenyl]-methylene]-1,3-dihydro-5-methyl-2H-indole-2-one, (Z)]	–
100%	< 40%	CCOC(=O)c1ccc2c(c1)/C(=C/c1cc(C(C)(C)C)c(O)c(C(C)(C)C)c1)C(=O)N2 [Example 6, 3-[[3,5-bis(1,1-dimethylethyl)-4-hydroxyphenyl]-methylene]-2,3-dihydro-2-oxo-1H-indole-5-carboxylic acid, ethyl ester (Z)-]	–
100%	< 40%	CC(C)(C)c1cc(/C=C2\C(=O)Nc3ccc(C(=O)O)cc32)cc(C(C)(C)C)c1O [Example 12, 3-[[3,5-bis(1,1-dimethylethyl)-4-hydroxyphehyl]methylene]-2,3-dihydro-2-oxo-1H-indole-5-carboxylic acid, (Z)-]	–
